The target in series [1] is T1, human MC-5R (Homo sapiens, UniProt P33032).
T1 construct: expressed in transfected cells; host or cells: CHO- or L-cells or other eukaryotic cells
Put plainly: Membrane binding assay, competition with 125I-NDP-alpha-MSH. The conditions noted are these: human receptor; average of at least 3 determinations. As to the method: (§1) A. Binding Assay. The membrane binding assay was used to identify competitive inhibitors of ^125I-NDP-alpha-MSH binding to cloned human MCRs expressed in L- or CHO-cells.
(§2) Cell lines expressing melanocortin receptors were grown in T-180 flasks containing selective medium of the composition: 1 L Dulbecco's modified Eagles Medium (DMEM) with 4.5 g L-glucose, 25 mM Hepes, without sodium pyruvate, (Gibco/BRl); 100 ml 10% heat-inactivated fetal bovine serum (Sigma); 10 ml 10,000 unit/ml penicillin & 10,000 ug/ml streptomycin (Gibco/BRl); 10 ml 200 mM L-glutamine (Gibco/BRl); 1 mg/ml Geneticin (G418) (Gibco/BRl). The cells were grown at 37° C. with CO2 and humidity control until the desired cell density and cell number was obtained.
(§3) The medium was poured off and 10 mls/monolayer of enzyme-free dissociation media (Specialty Media Inc.) was added. The cells were incubated at 37° C. for 10 minutes or until cells sloughed off when flask was banged against hand.
(§4) The cells were harvested into 200 ml centrifuge tubes and spun at 1000 rpm, 4° C., for 10 min. […]
(§5) IC50's were determined in a competition binding assay with ^125I-NDP-alpha-MSH as ligand using crude membranes prepared from cell lines expressing the appropriate MC-R. Functional EC50's were determined by application of compound to intact cells followed by direct measurement of cAMP as described in the Biological Assays section above.

Another series deals with T2, human MC-1R (Homo sapiens, UniProt Q01726).
T2 construct: expressed in transfected cells; host or cells: CHO- or L-cells or other eukaryotic cells
As to the kind of experiment: Functional cell based cAMP assay. The settings on record: cAMP relative to alpha-MSH at 10 μM defined as 100% agonist.
Text: (§6) B. Functional assay. Functional cell based assays were developed to discriminate melanocortin receptor agonists from antagonists.
(§7) Cells (for example, CHO- or L-cells or other eukaryotic cells) expressing a human melanocortin receptor (see e.g. Yang-YK; Ollmann-MM; Wilson-BD; Dickinson-C; Yamada-T; Barsh-GS; Gantz-I; Mol-Endocrinol. 1997 Mar; 11(3): 274-80) were dissociated from tissue culture flasks by rinsing with Ca and Mg free phosphate buffered saline (14190-136, Life Technologies, Gaithersburg, Md.) and detached following 5 minutes incubation at 37° C. with enzyme free dissociation buffer (S-014-B, Specialty Media, Lavellette, N.J.). Cells were collected by centrifugation and resuspended in Earle's Balanced Salt Solution (14015-069, Life Technologies, Gaithersburg, Md.) with additions of 10 mM HEPES pH 7.5, 5 mM MgCl2, 1 mM glutamine and 1 mg/ml bovine serum albumin. Cells were counted and diluted to 1 to 5×10^6/ml. The phosphodiesterase inhibitor 3-isobutyl-1-methylxanthine was added to cells to 0.6 mM.
(§8) Test compounds were diluted in dimethylsulfoxide (DMSO) (10^−5 to 10^−10 M) and 0.1 volume of compound solution was added to 0.9 volumes of cell suspension; the final DMSO concentration was 1%. After room temperature incubation for 45 min., cells were lysed by incubation at 100° C. for 5 min. to release accumulated cAMP.
(§9) cAMP was measured in an aliquot of the cell lysate with the Amersham (Arlington Heights, Ill.) cAMP detection assay (RPA556). The amount of cAMP production which resulted from an unknown compound was compared to that amount of cAMP produced in response to alpha-MSH at 10 μM which was defined as a 100% agonist.
as §5
On the technique in general: Cyclic AMP is a second messenger, typically raised through Gs and lowered through Gi signalling.

In the next series the target is T3, human MC-3R (Homo sapiens, UniProt P41968).
T3 construct: expressed in transfected cells; host or cells: CHO- or L-cells or other eukaryotic cells
As to the kind of experiment: Functional cell based cAMP assay. The conditions noted are these: cAMP relative to alpha-MSH at 10 μM defined as 100% agonist.
Text: as §6, §7, §8, §9, §5

In series [2] the target is T1, human MC-5R. Put plainly: Functional cell based cAMP assay.
Text: as §6, §7, §8, §9, §5

The test system of series [3] is conscious rat model of reflexogenic erections. As to the kind of experiment: Rat ex copula assay, conscious rat model of reflexogenic erections. The conditions noted are these: for penile erections, % Increase from Vehicle or Baseline: rats; for efficacy of reference drugs in conscious rat model of reflexogenic erections: positive reference controls. The series is classed as in vivo. As to the method: Sexually mature male Caesarian Derived Sprague Dawley (CD) rats (over 60 days old) are used with the suspensory ligament surgically removed to prevent retraction of the penis back into the penile sheath during the ex copula evaluations. Animals receive food and water ad lib and are kept on a normal light/dark cycle. Studies are conducted during the light cycle.
1) Conditioning to Supine Restraint for Ex Copula Reflex Tests. This conditioning takes ˜4 days. Day 1, the animals are placed in a darkened restrainer and left for 15-30 minutes. Day 2, the animals are restrained in a supine position in the restrainer for 15-30 minutes. Day 3, the animals are restrained in the supine position with the penile sheath retracted for 15-30 minutes. Day 4, the animals are restrained in the supine position with the penile sheath retracted until penile responses are observed. Some animals require additional days of conditioning before they are completely acclimated to the procedures; non-responders are removed from further evaluation. After any handling or evaluation animals are given a treat to ensure positive reinforcement.
2) Ex Copula Reflex Tests. Rats are gently restrained in a supine position with their anterior torso placed inside a cylinder of adequate size to allow for normal head and paw grooming. For a 400-500 gram rat, the diameter of the cylinder is approximately 8 cm. The lower torso and hind limbs are restrained with a non-adhesive material (vetrap). An additional piece of vetrap with a hole in it, through which the glans penis will be passed, is fastened over the animal to maintain the preputial sheath in a retracted position. Penile responses will be observed, typically termed ex copula genital reflex tests. Typically, a series of penile erections will occur spontaneously within a few minutes after sheath retraction. The types of normal reflexogenic erectile responses include elongation, engorgement, cup and flip. An elongation is classified as an extension of the penile body. Engorgement is a dilation of the glans penis. A cup is defined as an intense erection where the distal margin of the glans penis momentarily flares open to form a cup. A flip is a dorsiflexion of the penile body.
Baseline and or vehicle evaluations are conducted to determine how and if an animal will respond. Some animals have a long duration until the first response while others are non-responders altogether. During this baseline evaluation latency to first response, number and type of responses are recorded. The testing time frame is 15 minutes after the first response.
[…] All evaluations are videotaped and scored later. Data are collected and analyzed using paired 2 tailed t-tests to compared baseline and/or vehicle evaluations to drug treated evaluations for individual animals. Groups of a minimum of 4 animals are utilized to reduce variability.
Positive reference controls are included in each study to assure the validity of the study. Animals can be dosed by a number of routes of administration depending on the nature of the study to be performed. The routes of administration includes intravenous (IV), intraperitoneal (IP), subcutaneous (SC) and intracerebral ventricular (ICV).
In this non-random crossover model, rats were placed in the supine position with the preputial sheath retracted to initiate a reflex arc. The number of erections was counted in the 15 minute period following the first erection.

For series [4], the target named is T4, human MC-2R (Homo sapiens, UniProt Q01718). As to the kind of experiment: Functional cell based cAMP assay. On the set-up: expressed in transfected cells; host or cells: L- or CHO-cells. The settings on record: @ 10 μM; cAMP relative to alpha-MSH defined as 100% agonist.
Text: as §6
as §7, with “The phosphodiesterase inhibitor 3-isobutyl-1-methylxanthine was added to cells to 0.6 mM.” left out
cAMP was measured in an aliquot of the cell lysate with the Amersham (Arlington Heights, Ill.) cAMP detection assay (RPA556). […]
as §5

Series [5] deals with T4, human MC-2R. Put plainly: Membrane binding assay, competition with 125I-NDP-alpha-MSH. Details: expressed in transfected cells; host or cells: L- or CHO-cells (membranes). The settings on record: human receptor; average of at least 3 determinations. As to the method: as §1, §2, §3, §4, §5
For a further series, the system named is erectile dysfunction. The conditions noted are these: cited from earlier work; for duration of effect / onset of action: after an oral dose, men; for proportion of men/patients with adequate response: oral, erectile dysfunction patients.
The test system of series [6] is animal feeding models (NPY, ob/ob, agouti, fasted). The conditions noted are these: injected intracerebroventricularly (ICV) in rodents; cited from earlier work.
Series [7] relates to psychogenic erectile dysfunction. The conditions noted are these: cited from earlier work.
The conditions of series [8]: in vivo; cited from earlier work.

Marks after values point to notes of the source that are not given here.

T1 sequence (P33032 whole entry): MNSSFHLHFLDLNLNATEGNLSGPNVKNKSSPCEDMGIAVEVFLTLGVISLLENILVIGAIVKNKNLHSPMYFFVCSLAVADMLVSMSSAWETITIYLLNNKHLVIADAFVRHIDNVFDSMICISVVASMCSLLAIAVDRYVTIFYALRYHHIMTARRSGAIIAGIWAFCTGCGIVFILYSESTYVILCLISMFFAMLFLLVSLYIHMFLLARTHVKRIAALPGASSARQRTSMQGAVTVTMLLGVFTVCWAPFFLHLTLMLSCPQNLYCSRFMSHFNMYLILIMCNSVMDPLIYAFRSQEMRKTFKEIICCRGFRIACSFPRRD
T4 sequence (Q01718 whole entry): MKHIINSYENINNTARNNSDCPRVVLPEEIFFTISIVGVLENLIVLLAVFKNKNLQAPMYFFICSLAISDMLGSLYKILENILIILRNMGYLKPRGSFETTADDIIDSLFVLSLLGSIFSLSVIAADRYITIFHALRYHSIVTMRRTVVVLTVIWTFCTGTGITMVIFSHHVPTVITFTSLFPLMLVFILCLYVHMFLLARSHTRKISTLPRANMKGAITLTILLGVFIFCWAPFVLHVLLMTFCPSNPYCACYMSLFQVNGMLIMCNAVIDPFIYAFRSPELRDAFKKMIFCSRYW
T3 sequence (P41968 whole entry): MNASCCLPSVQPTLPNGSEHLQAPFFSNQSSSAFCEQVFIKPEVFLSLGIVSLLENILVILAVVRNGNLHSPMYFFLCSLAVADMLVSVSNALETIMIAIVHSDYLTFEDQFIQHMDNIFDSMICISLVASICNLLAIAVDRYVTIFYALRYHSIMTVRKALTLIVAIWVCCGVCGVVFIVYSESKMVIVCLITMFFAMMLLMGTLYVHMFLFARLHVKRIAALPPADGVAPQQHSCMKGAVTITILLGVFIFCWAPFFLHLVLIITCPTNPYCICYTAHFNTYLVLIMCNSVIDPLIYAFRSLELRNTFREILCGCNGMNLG
T2 sequence (Q01726 whole entry): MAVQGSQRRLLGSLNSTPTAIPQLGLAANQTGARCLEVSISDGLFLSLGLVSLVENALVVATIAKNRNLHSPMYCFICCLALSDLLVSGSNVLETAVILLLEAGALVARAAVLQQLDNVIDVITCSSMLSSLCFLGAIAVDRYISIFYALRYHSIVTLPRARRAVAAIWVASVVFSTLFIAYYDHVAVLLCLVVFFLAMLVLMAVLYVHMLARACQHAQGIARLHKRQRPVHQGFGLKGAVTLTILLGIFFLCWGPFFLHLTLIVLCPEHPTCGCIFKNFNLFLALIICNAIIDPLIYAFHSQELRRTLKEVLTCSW

As to `O=C(N[C@H](Cc1ccc(Cl)cc1)C(=O)N1CCC(Cn2cncn2)(C2CCCCC2)CC1)[C@H]1Cc2ccccc2CN1` [Example 2], the IC50 on human MC-5R [1] is 0.23 µM; at human MC-2R [5], more than 10 µM. For the same molecule, the “Functional Activity, agonist efficacy, MC-1R” value on human MC-1R is 84%. Moreover, the “Functional Activity, agonist efficacy, MC-3R” value at human MC-3R is 29%. Moreover, on human MC-5R [2] (cAMP relative to alpha-MSH at 10 μM defined as 100% agonist), the “Functional Activity, agonist efficacy, MC-5R” value amounted to 58%. Further, the EC50 on human MC-5R [2] (human receptor, cAMP, average of at least 3 determinations) worked out at 0.53 µM. For the same molecule, the “number of erections in conscious rat model of reflexogenic erections” value in series [3] (administered by the intravenous (IV) route or by the oral (PO) route) is listed as “effective in significantly increasing the number of erections”. For the same molecule, the “penile erections, % Increase from Vehicle or Baseline” value in series [3] (0.3 mg/kg IV, placed supine 60 min after dosing, P = 0.05) was 15* %; in series [3] (1.0 mg/kg IV, placed supine 0 min after dosing, P = 0.05), 31%; in [3] (1.0 mg/kg IV, placed supine 60 min after dosing, P = 0.05), 35%; in series [3] (5.0 mg/kg IV, placed supine 60 min after dosing, P = 0.01), 50** %; in series [3] (10 mg/kg IV, placed supine 0 min after dosing, P = 0.01), 45%; in series [3] (10 mg/kg IV, placed supine 60 min after dosing, P = 0.01) it was 38%. For the same molecule, the “penile erections, % Increase from Vehicle or Baseline” value is given as 24** % in series [3] (20 mg/kg PO, placed supine 60 min after dosing, P = 0.01) and 41* % in series [3] (20 μG ICV, placed supine 0 min after dosing, P = 0.05). For the same molecule, the “Functional Activity, agonist efficacy, MC-2R” value at human MC-2R [4] stood at 0% @ 10 μM.

Take `CN1CCc2cccc3c2[C@H]1Cc1ccc(O)c(O)c1-3` [apomorphine]: the “efficacy of reference drugs in conscious rat model of reflexogenic erections” value in series [3] is “effective”.

On to `Cc1ccc(N(CC2=NCCN2)c2cccc(O)c2)cc1` [phentolamine], for which, in the series on erectile dysfunction, the duration of effect was 2 h, the onset of action is 5 to 30 min and the “proportion of men/patients with adequate response” value was 35-40%.

As to `CCCc1nn(C)c2c(=O)[nH]c(-c3cc(S(=O)(=O)N4CCN(C)CC4)ccc3OCC)nc12` [sildenafil], the “efficacy of reference drugs in conscious rat model of reflexogenic erections” value in series [3] was “effective”. In addition, in the series on erectile dysfunction, the duration of effect entry is given as “about 4 hours”, the onset of action was 30 to 60 min and the “proportion of men/patients with adequate response” value is given as “about 70%”. In addition, the “adverse effects associated with clinical use” value in the series on erectile dysfunction (clinical use) is “headache, flushing, dyspepsia, and “abnormal vision”.

For “Ac-Nle-c[Asp-His-DPhe-Arg-Trp-Lys]-NH2 [MT-II]”, the “effect on food intake” value in series [6] is listed as “reduces food intake”. Besides, the adverse reactions observed entry in series [7] (in vivo) was “nausea, flushing, loss of appetite, stretching, and yawning”. For the same molecule, in [7] (injected intramuscularly or subcutaneously to males with psychogenic erectile dysfunction), the response rate is 75%. In series [7] (men), the duration of action result is reported as “approximately 2.5 hours” and the “time to onset of erection” value was 10 to 20 min. In series [8], the “absorption into the systemic circulation by the oral route” value is “not absorbed into the systemic circulation”.

Take SHU-9119: in series [6], the “effect on food intake” value is “reverses this effect and can induce hyperphagia”.

By IC50 is commonly meant the midpoint of a concentration-inhibition curve. Low values mean inhibition by little substance, high ones a need for much substance. Usually EC50 stands for the concentration at which the effect is half-maximal. Higher therefore signals a need for much substance.

The values are drawn from patent US6350760B1, “Substituted piperidines as melanocortin-4 receptor agonists” (Merck & Co., Inc., priority 1999, dated 2002).
